How the values were obtained:
[1] = target: T1, BTK (Homo sapiens, UniProt Q06187); test: BTK degradation activity test in Mino cells; assay type: cell-based; conditions: 16 h incubation, Western blot or Elisa
T1 construct: endogenous in cells; host or cells: Mino cells
Method in brief: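 DC50 derived by curve fitting of BTK degradation rates versus untreated control across compound concentrations. Mino cells were exposed for 16 h; BTK levels in lysates, normalised via BCA protein, measured by Western blot or ELISA.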

[2] = target: T2, BTK-C481S (Homo sapiens, UniProt Q06187, C481S); test: BTK-C481S degradation activity test in HEK293 OE BTK-C481S cells; assay type: cell-based; conditions: 24 h incubation, Western blot or Elisa
T2 construct: expressed in transfected cells; host or cells: HEK293 OE BTK-C481S (overexpressing) cell line
Procedure: HEK293 OE BTK-C481S cell line cells were seeded at 500,000 to 1,000,000 cells/well in a 6-well plate. The compounds were diluted to different concentrations and added to the plate, and after 24 h of incubation, the cells were harvested. After lysing the cells, the total protein concentration in each well was determined using the BCA method. The amount of BTK-C481S was determined using Western blot or Elisa method. The amount of undegraded BTKC481S protein at each drug concentration was compared with the amount of BTKC481S protein in the blank control group to calculate the degradation rate. The degradation curve was drawn based on the degradation rate at each concentration, and the half degradation concentration (DC50) was calculated by fitting.

[3] = test system: OCI-LY10 cells; test: Inhibitory activity on OCI-LY10 cell proliferation (MTS); assay type: cell-based; conditions: Homo sapiens, 72 h
Method in brief: (§1)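 Cells seeded at 10000/well, treated with compounds from 1000 nM (4-fold, 8 points) for 72 h (OCI-LY10) or 168 h (Mino) at 37° C. MTS added for 2 h, stopped with SDS, absorbance read at 490 and 650 nm; IC50 from dose-response fit.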

[4] = test system: Mino cells; test: Inhibitory activity on Mino cell proliferation (MTS); assay type: cell-based; conditions: Homo sapiens, 168 h incubation
Method in brief: as §1

[5] = Mouse absorption test (pharmacokinetic properties in mice); assay type: in vivo; conditions: intragastric; for DNAUC: DNAUC = AUC/Dose; for Cmax: mouse, plasma, po
Procedure: […] The blood collection time points for intragastric administration were 0.25, 0.5, 1, 2, 4, 6, 8, and 24 h. 0.5 mL of blood was taken with a capillary tube from the orbit, and placed in an EP tube containing EDTA anticoagulant. The EP tube was shaken gently for mixing uniformly, and centrifuged at 3500 rpm and 4° C. for 10 min. The supernatant, i.e., plasma, was taken. Analysis was performed using LC-MS/MS.

[6] = test system: OCL-LY10 transplanted tumors; test: Chronic efficacy test, OCL-LY10 subcutaneous transplanted tumor model; assay type: in vivo; conditions: NOD/SCID mice, intragastric 10 mg/kg, 3 weeks
Procedure: NOD/SCID mice were subcutaneously inoculated with OCL-LY10 cells to establish a tumor model. When the tumors grew to about 100 mm^3, the mice were administered with drugs in groups. The mode of administration was as follows: the test compound was administered intragastrically at 10 mg/kg; The changes in body weight and tumor size of the mice were measured twice per week. After 3 weeks, the mice were sacrificed by cervical dislocation, and the efficacy of the compounds on transplanted tumors in OCL-LY10 mice was examined.

[7] = Stability of compounds in human liver microsome; assay type: in vitro ADME; conditions: human liver microsomes, NADPH, 37° C., sampling 0-120 min; read-out: Human liver microsome T1/2
Procedure: Compound to be tested: the compound to be tested (1 mg) was dissolved in DMSO (10 mL) to formulate to 0.1 mg/mL.
Internal standard compound: the internal standard compound (1 mg) was dissolved in DMSO (10 mL), 10 μL was taken and diluted to 10 mL to formulate to 100 ng/mL.
NADPH solution: NADPH (2.08 mg) was dissolved in PBS (50 μL) buffer to formulate to 50 mM.
Under the condition of ice bath, 1 mg of human liver microparticles was add to PBS (1 mL) buffer, then NADPH (20 μL) was added, and incubated at 37° C. for 5 min. 10 μL of the compound to be tested was added, and then samples were taken at 0, 15, 30, 60 and 120 min respectively. 10 μL of the solution was taken with a pipette each time and added to 490 μL of the solution containing the internal standard compound. The resulting solution was vortexed and then placed on ice, and then sampling at another time point continues. All samples were centrifuged at 10,000 rpm for 10 min, and the supernatant was taken for LC/MS testing. The metabolism of the compound in liver microsomes was calculated based on the peak area.

T1 sequence (Q06187 whole entry): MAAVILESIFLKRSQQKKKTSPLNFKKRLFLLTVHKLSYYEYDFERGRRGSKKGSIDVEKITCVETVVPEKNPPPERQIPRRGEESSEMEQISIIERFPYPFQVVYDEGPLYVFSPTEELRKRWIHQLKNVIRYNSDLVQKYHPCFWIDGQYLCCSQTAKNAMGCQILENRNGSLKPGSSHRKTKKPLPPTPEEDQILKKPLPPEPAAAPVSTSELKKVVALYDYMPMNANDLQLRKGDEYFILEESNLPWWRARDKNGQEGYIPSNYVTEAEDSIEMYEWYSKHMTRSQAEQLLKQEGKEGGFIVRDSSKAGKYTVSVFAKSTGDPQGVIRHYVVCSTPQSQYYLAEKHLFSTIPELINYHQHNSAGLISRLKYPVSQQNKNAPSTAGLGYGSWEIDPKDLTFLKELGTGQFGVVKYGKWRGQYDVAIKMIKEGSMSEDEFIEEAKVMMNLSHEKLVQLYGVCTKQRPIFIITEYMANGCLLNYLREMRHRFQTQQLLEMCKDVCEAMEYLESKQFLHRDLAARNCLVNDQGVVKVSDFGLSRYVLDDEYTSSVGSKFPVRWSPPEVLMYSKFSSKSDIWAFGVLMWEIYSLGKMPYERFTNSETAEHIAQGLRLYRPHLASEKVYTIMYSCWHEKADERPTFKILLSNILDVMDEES
T2 sequence (Q06187 whole entry C481S): as the sequence (Q06187 whole entry) above, with C481S counted along it

| SMILES | DC50 [1] [nM] | DC50 [2] [nM] | IC50 [3] [nM] | IC50 [4] [nM] | DNAUC ([5]; 30 mg/kg) [ng/ml*h/mpk] | Cmax ([5]; 30 mg/kg, class symbols) [ng/mL] | TGI (%) [6] [%] | half-life at 0.97 µg/mL [7] [min] | Cmax ([5]; 30 mg/kg) [ng/mL] | DNAUC ([5]; 100 mg/kg) [ng/ml*h/mpk] | Cmax ([5]; 100 mg/kg) [ng/mL] |
| --- | --- | --- | --- | --- | --- | --- | --- | --- | --- | --- | --- |
| CN1CCN([C@@H]2CCCN(c3nnc(C(N)=O)c(Nc4ccc(C5CCN(CC6CCN(c7ccc8c(c7)C(=O)N(C7CCC(=O)NC7=O)C8=O)CC6)CC5)cc4)n3)C2)C1=O (stereo partly drawn) [Compound 123, 5-((4-(1-((1-(2-(2,6-dioxopiperidin-3-yl)-1,3-dioxoisoindolin-5-yl)piperidin-4-yl)methyl)piperidin-4-yl)phenyl)amino)-3-((R)-3-(3-methyl-2-oxoimidazolin-1-yl)piperidin-1-yl)-1,2,4-triazin-6-carboxamide] | < 1 | < 10 | 0.2 | 2.11 | 1920 | > 6000 | 95.66 |  |  |  |  |
| CN1CCN([C@@H]2CCCN(c3nnc(C(N)=O)c(Nc4ccc(N5CCN(CC6CCN(c7ccc8c(c7)C(=O)N(C7CCC(=O)NC7=O)C8=O)C6)CC5)c(F)c4)n3)C2)C1=O (stereo partly drawn) [Compound 130, 5-((4-(4-((1-(2-(2,6-dioxopiperidin-3-yl)-1,3-dioxoisoindolin-5-yl)pyrrolidin-3-yl)methyl)piperazin-1-yl)-3-fluorophenyl)amino)-3-((R)-3-(3-methyl-2-oxoimidazolin-1-yl)piperidin-1-yl)-1,2,4-triazin-6-carboxamide] | < 1 | < 10 | 0.28 | 2.41 | 3809 | > 6000 |  | 32.6 |  |  |  |
| CN1CCN([C@@H]2CCCN(c3nnc(C(N)=O)c(Nc4ccc(N5CCN(CC6CCN(c7ccc(C(=O)N[C@H]8CCC(=O)NC8=O)nc7)C6)CC5)c(F)c4)n3)C2)C1=O (stereo partly drawn) [Compound 145, 5-((4-(4-((1-(6-(((S)-2,6-dioxopiperidin-3-yl)carbamoyl)pyridin-3-yl)pyrrolidin-3-yl)methyl)piperazin-1-yl)-3-fluorophenyl)amino)-3-((R)-3-(3-methyl-2-oxoimidazolin-1-yl)piperidin-1-yl)-1,2,4-triazin-6-carboxamide] | < 1 |  | 0.56 | 4.15 | 2704 |  |  | > 30 | 13800 |  |  |
| CN1CCN([C@@H]2CCCN(c3nnc(C(N)=O)c(Nc4ccc(N5CCN(CC6CCN(c7ccc(C(=O)NC8CCC(=O)NC8=O)nc7)CC6)CC5)c(F)c4)n3)C2)C1=O (stereo partly drawn) [Compound 146, 5-((4-(4-((1-(6-((2,6-dioxopiperidin-3-yl)carbamoyl)pyridin-3-yl)piperidin-4-yl)methyl)piperazin-1-yl)-3-fluorophenyl)amino)-3-((R)-3-(3-methyl-2-oxoimidazolin-1-yl)piperidin-1-yl)-1,2,4-triazin-6-carboxamide] | < 1 | < 10 | 1.39 | 1.73 |  |  |  | > 30 |  |  |  |
| CN1CCN([C@@H]2CCCN(c3nnc(C(N)=O)c(Nc4ccc(N5CCN(CC6CCN(c7ccc(C(=O)NC8CCC(=O)NC8=O)c(F)c7)CC6)CC5)c(F)c4)n3)C2)C1=O (stereo partly drawn) [Compound 254, 5-((4-(4-((1-(4-((2,6-dioxopiperidin-3-yl)carbamoyl)-3-fluorophenyl)piperidin-4-yl)methyl)piperazin-1-yl)-3-fluorophenyl)amino)-3-((R)-3-(3-methyl-2-oxoimidazolidin-1-yl)piperidin-1-yl)-1,2,4-triazin-6-carboxamide] | < 1 |  | 0.89 |  | 2536 | > 6000 |  | > 30 |  |  |  |
| CN1CCN([C@@H]2CCCN(c3nnc(C(N)=O)c(Nc4ccc(N5CCN(CC6CCN(c7ccc(N8CCC(=O)NC8=O)cc7)CC6)CC5)c(F)c4)n3)C2)C1=O [Compound 255, (R)-5-((4-(4-((1-(4-(2,4-dioxotetrahydropyrimidin-1(2H)-yl)phenyl)piperidin-4-yl)methyl)piperazin-1-yl)-3-fluorophenyl)amino)-3-(3-(3-methyl-2-oxoimidazolidin-1-yl)piperidin-1-yl)-1,2,4-triazin-6-carboxamide] | < 1 | < 10 | 1.5 | < 0.26 | 1955 | > 6000 |  | > 30 |  |  |  |
| COc1ccc(N2CCC(CN3CCN(c4ccc(Nc5nc(N6CCC[C@@H](N7CCN(C)C7=O)C6)nnc5C(N)=O)cc4F)CC3)C2)cc1N1CCC(=O)NC1=O (stereo partly drawn) [Compound 258, 5-((4-(4-((1-(3-(2,4-dioxotetrahydropyrimidin-1(2H)-yl)-4-methoxyphenyl)pyrrolidin-3-yl)methyl)piperazin-1-yl)-3-fluorophenyl)amino)-3-((R)-3-(3-methyl-2-oxoimidazolidin-1-yl)piperidin-1-yl)-1,2,4-triazin-6-carboxamide] | < 1 |  | 0.96 | 5.31 |  |  |  | > 30 |  |  |  |
| COc1cc(N2CCC(CN3CCN(c4ccc(Nc5nc(N6CCC[C@@H](N7CCN(C)C7=O)C6)nnc5C(N)=O)cc4F)CC3)CC2)ccc1N1CCC(=O)NC1=O [Compound 259, (R)-5-((4-(4-((1-(4-(2,4-dioxotetrahydropyrimidin-1(2H)-yl)-3-methoxyphenyl)piperidin-4-yl)methyl)piperazin-1-yl)-3-fluorophenyl)amino)-3-(3-(3-methy 1-2-oxoimidazolidin-1-yl)piperidin-1-yl)-1,2,4-triazin-6-carboxamide] | < 1 | < 10 | 0.61 | 5.58 | 2223 | > 6000 |  | > 30 |  |  |  |
| CN1CCN([C@@H]2CCCN(c3cnc(C(N)=O)c(Nc4ccc(C5CCN(CC6CCN(c7ccc8c(c7)C(=O)N(C7CCC(=O)NC7=O)C8=O)CC6)CC5)cc4)n3)C2)C1=O (stereo partly shown) [Compound b] |  |  |  |  |  |  |  | 5.18 |  | 631 | 4030 |
| C=CC(=O)N1CCC[C@@H](n2nc(-c3ccc(Oc4ccccc4)cc3)c3c(N)ncnc32)C1 [Ibrutinib] |  |  |  |  |  |  | 50.72 |  |  |  |  |

From patent US20240360146A1, “BRUTON'S TYROSINE KINASE AND MUTANT DEGRADER, COMPOSITION AND APPLICATION THEREOF” (HANGZHOU HEALZEN THERAPEUTICS CO., LTD., priority 2021, published 2024)
